Assay results from ChEMBL document CHEMBL5260814, “Design strategies in the prodrugs of HIV-1 protease inhibitors to improve the pharmaceutical properties” (Eur J Med Chem, 2017).
Values after ≈ are worked out from the molar mass of the structure shown.

How the values were obtained:
[1] = Metabolic stability in rat liver microsome assessed as compound remaining measured after 2 hrs; type: ADME; settings: microsomes
[2] = Chemical stability of compound in PBS buffer at pH 4 assessed as half life measured for 24 hrs; type: physicochemical
[3] = Chemical stability of compound in PBS buffer at pH 7.4 assessed as half life measured for 24 hrs; type: physicochemical
[4] = Aqueous solubility of compound; type: physicochemical; settings: buffer
CEM-SS = assay: Cytotoxicity against human CEM-SS cells assessed as inhibition of cell growth; type: functional
[5] = Solubility of compound at pH at 1 to 8; type: physicochemical
[6] = Equilibrium solubility of compound; type: physicochemical
[7] = target: T1, Peptidyl-prolyl cis-trans isomerase FKBP1A (Homo sapiens, UniProt P62942); assay: Inhibition of FKBP12 (unknown origin)
T1 sequence (P62942 whole entry): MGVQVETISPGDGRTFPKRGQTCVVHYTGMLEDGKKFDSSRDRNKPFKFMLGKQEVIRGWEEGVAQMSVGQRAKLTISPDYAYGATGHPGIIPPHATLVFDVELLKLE

[8] = target: T1, Peptidyl-prolyl cis-trans isomerase FKBP1A; assay: Inhibition of FKBP12 (unknown origin) measured for 6 hrs relative to control; settings: concentration not given here
[9] = Half life in mouse plasma at 10 mg/kg, ip measured after 12 hrs; type: ADME, organism-based
[10] = target: Human immunodeficiency virus type 1 protease (Human immunodeficiency virus 1, UniProt Q72874); assay: Inhibition of HIV-1 protease by FRET-based assay
[11] = Metabolic stability in rat liver microsome assessed as compound remaining measured after 4 hrs; type: ADME; settings: microsomes
[12] = Half life in mouse plasma at 10 mg/kg, ip measured after 3 hrs; type: ADME, organism-based
[13] = Oral bioavailability in rat at 3 mg/kg; type: ADME, organism-based; settings: in vivo
[14] = Stability of compound assessed as half life at pH 2; type: physicochemical; settings: buffer
[15] = AUC in rat at 5 mg/kg, po; type: ADME, organism-based; design: dose 5 mg/kg, route po; settings: in vivo
[16] = Solubility of compound at pH at 7; type: physicochemical; settings: pH 7
[17] = Solubility of compound at pH at 3 to 4; type: physicochemical
[18] = Solubility of compound at pH at 3; type: physicochemical; settings: pH 3
[19] = Efflux ratio of apparent permeability across apical to basolateral to basolateral to apical side in MDCK1 cells; type: ADME, cell-based
[20] = Drug uptake in dog MDCK-MDR1 cells; type: ADME, cell-based, Canis lupus familiaris

`Cc1cccc(C)c1OCC(=O)N[C@@H](Cc1ccccc1)[C@@H](O)C[C@H](Cc1ccccc1)NC(=O)[C@H](C(C)C)N1CCCNC1=O` [LOPINAVIR] gave a Stability [1] of 5%, a half-life [2] of 101 h and a half-life [3] of 5.4 h. For the same compound, the solubility [4] was 7 µg/mL (≈ 11.1 µM).
Compound `CCCCCCCC/C=C\CCCCCCCC(=O)OCC(COC(=O)CCCCCCC/C=C\CCCCCCCC)OC(=O)CCC(=O)O[C@@H](C[C@@H](Cc1ccccc1)C(=O)N[C@H]1c2ccccc2C[C@H]1O)CN1CCN(Cc2cccnc2)C[C@H]1C(=O)NC(C)(C)C` has a CC50 (CEM-SS) greater than 100000 nM.
Work on `CC(C)CN(C[C@@H](OP(=O)([O-])[O-])[C@H](Cc1ccccc1)NC(=O)O[C@H]1CCOC1)S(=O)(=O)c1ccc(N)cc1.[Na+].[Na+]` [FOSAMPRENAVIR SODIUM] yielded a solubility [5] greater than 3000 µg/mL.
`CC(C)CN(C[C@@H](O)[C@H](Cc1ccccc1)NC(=O)O[C@H]1CCOC1)S(=O)(=O)c1ccc(N)cc1` showed a solubility thermodynamic [6] of 160 µM (≈ 80.9 µg/mL).
`CCC(C)(C)C(=O)C(=O)N1CCCCC1C(=O)OC(CCc1ccc(OC)c(OC)c1)c1cccc(NC(=O)CCC(=O)N[C@@H](Cc2ccccc2)[C@H](O)CN(CC(C)C)S(=O)(=O)c2ccc(OC)cc2)c1` (stereo partly specified) gave an IC50 [7] of 11.8 nM, an inhibition [8] of 100% and a half-life [9] greater than 9 h. The IC50 [10] was 9.8 nM.
In the case of `Cc1cccc(C)c1OCC(=O)N[C@@H](Cc1ccccc1)[C@H](C[C@H](Cc1ccccc1)NC(=O)[C@H](C(C)C)N1CCCNC1=O)OC(=O)[C@@H](NC(=O)[C@@H](N)C(C)C)C(C)C`, the Stability [1] is reported as 10% and the Stability [11] is reported as 46%.
Compound `COc1ccc(S(=O)(=O)N(CC(C)C)C[C@@H](O)[C@H](Cc2ccccc2)NC(=O)O[C@H]2CCOC2)cc1` has an inhibition [8] of 100%, a half-life [12] of 0.5 h and an IC50 [10] of 4.2 nM.
`CCCCCCCCCCCCCCCC(=O)OCC(COC(=O)CCCCCCCCCCCCCCC)OC(=O)CCC(=O)O[C@@H](C[C@@H](Cc1ccccc1)C(=O)N[C@H]1c2ccccc2C[C@H]1O)CN1CCN(Cc2cccnc2)C[C@H]1C(=O)NC(C)(C)C` showed a CC50 (CEM-SS) greater than 100000 nM.
Compound `CC(C)[C@H](N)C(=O)O[C@@H]1Cc2ccccc2[C@@H]1NC(=O)[C@H](Cc1ccccc1)C[C@H](O)CN1CCN(Cc2cccnc2)C[C@H]1C(=O)NC(C)(C)C` has a bioavailability [13] of 32%.
Compound `Cc1cccc(C)c1OCC(=O)N[C@@H](Cc1ccccc1)[C@H](C[C@H](Cc1ccccc1)NC(=O)[C@H](C(C)C)N1CCCNC1=O)OC(C)OP(=O)([O-])[O-].[Na+].[Na+]` (stereo partly specified) has a solubility [4] greater than 5000 µg/mL, a half-life [14] of less than 0.25 h and an AUC [15] of 9530 ng·h/mL.
`CC(C)(C)NC(=O)[C@@H]1CN(Cc2cccnc2)CCN1C[C@@H](O)C[C@@H](Cc1ccccc1)C(=O)N[C@H]1c2ccccc2C[C@H]1O.O` showed a bioavailability [13] of 76%.
`CC(C)CN(C[C@@H](OP(=O)([O-])[O-])[C@H](Cc1ccccc1)NC(=O)O[C@H]1CCOC1)S(=O)(=O)c1ccc(N)cc1.[Ca+2]` [FOSAMPRENAVIR CALCIUM] showed a solubility [16] of 300 µg/mL, a solubility [17] of 54000 µg/mL and a solubility [18] of 54000 µg/mL. It also gave a solubility thermodynamic [6] of 400 µM.
Compound `CC(C)[C@H](NC(=O)CN)C(=O)O[C@H](CN1C[C@H]2CCCC[C@H]2C[C@H]1C(=O)NC(C)(C)C)[C@H](Cc1ccccc1)NC(=O)[C@H](CC(N)=O)NC(=O)c1ccc2ccccc2n1` has a Ratio [19] of 2.1.
`CC(C)(C)NC(=O)[C@@H]1C[C@@H]2CCCC[C@@H]2CN1C[C@@H](OC(=O)CCCC[C@@H]1SC[C@@H]2NC(=O)N[C@@H]21)[C@H](Cc1ccccc1)NC(=O)[C@H](CC(N)=O)NC(=O)c1ccc2ccccc2n1` gave a Drug uptake [20] of 72%.
`COc1ccc(S(=O)(=O)N(CC(C)C)C[C@@H](O)[C@H](Cc2ccccc2)NC(=O)CCC(=O)O)cc1` gave an IC50 [10] of 11.8 nM.
Work on `Cc1cccc(C)c1OCC(=O)N[C@@H](Cc1ccccc1)[C@H](C[C@H](Cc1ccccc1)NC(=O)[C@H](C(C)C)N1CCCNC1=O)OC(=O)[C@@H](NC(=O)CN)C(C)C` yielded a Stability [1] of 26% and a Stability [11] of 46%.
